Measurements taken from patent publication US11566007B2, “Ras inhibitors” (Revolution Medicines, Inc., priority 2019, dated 2023).

How the values were obtained:
Format in all cases: biochemical
K-Ras G12C = K-Ras G12C (Homo sapiens (Human), UniProt P01116+P62937, G12C); assay: Ras-Raf (BRAF RBD) disruption / FRET / MOA assay, KRAS G12C; conditions: KRAS G12C; Ras-Raf disruption/FRET/MOA assay; read-out: IC50* KRAS G12C FRET data
Procedure, shortened: (§1)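 Ras:RAF disruption was scored as a fall in TR-FRET ratio relative to DMSO. Compound ranged in 3-fold steps over 10 points from 30 μM final; incubation ran 3 h at 25° C, detection antibodies a further 1.5 h. Reported as IC50.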

NRAS G12C = NRAS G12C (Homo sapiens (Human), UniProt P01111+P62937, G12C); assay: Ras-Raf (BRAF RBD) disruption / FRET / MOA assay, NRAS G12C; conditions: read-out: IC50* NRAS G12C FRET data
Sequence of NRAS G12C (P01111 whole entry G12C): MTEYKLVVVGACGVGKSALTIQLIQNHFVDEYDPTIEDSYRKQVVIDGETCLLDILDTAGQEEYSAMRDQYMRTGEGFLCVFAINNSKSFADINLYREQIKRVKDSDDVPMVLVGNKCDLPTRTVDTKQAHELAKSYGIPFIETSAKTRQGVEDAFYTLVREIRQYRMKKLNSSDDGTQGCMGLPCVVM
Sequence of NRAS G12C (P62937 whole entry): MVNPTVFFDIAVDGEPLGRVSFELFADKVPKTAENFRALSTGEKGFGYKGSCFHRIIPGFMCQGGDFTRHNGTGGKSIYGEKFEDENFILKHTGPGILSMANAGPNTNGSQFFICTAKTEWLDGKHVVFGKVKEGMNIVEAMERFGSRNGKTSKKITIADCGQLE
Procedure, shortened: as §1

KRAS G13D = KRAS G13D (Homo sapiens (Human), UniProt P01116+P62937, G13D); assay: Ras-Raf (BRAF RBD) disruption / FRET / MOA assay, KRAS G13D; conditions: read-out: IC50* KRAS G13D FRET data
Sequence of KRAS G13D (P01116-2 other isoform, or with tags, fused parts or gaps G13D): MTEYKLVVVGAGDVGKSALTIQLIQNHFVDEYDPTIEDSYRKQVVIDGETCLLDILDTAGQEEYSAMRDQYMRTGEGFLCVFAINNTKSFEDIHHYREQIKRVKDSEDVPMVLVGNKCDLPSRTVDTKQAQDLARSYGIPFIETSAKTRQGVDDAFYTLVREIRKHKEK
Sequence of KRAS G13D (P62937 whole entry): as the sequence (P62937 whole entry) above
Procedure, shortened: as §1

K-Ras G13C = K-Ras G13C (Homo sapiens (Human), UniProt P01116+P62937, G13C); assay: Ras-Raf (BRAF RBD) disruption / FRET / MOA assay, KRAS G13C; conditions: KRAS G13C; Ras-Raf disruption/FRET/MOA assay; read-out: IC50* KRAS G13C FRET data
Sequence of K-Ras G13C (P01116-2 other isoform, or with tags, fused parts or gaps G13C): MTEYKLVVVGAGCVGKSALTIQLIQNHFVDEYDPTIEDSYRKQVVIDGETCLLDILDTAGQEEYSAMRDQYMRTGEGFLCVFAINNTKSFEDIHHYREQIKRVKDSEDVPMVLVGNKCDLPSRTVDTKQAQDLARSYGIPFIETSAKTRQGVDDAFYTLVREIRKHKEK
Sequence of K-Ras G13C (P62937 whole entry): as the sequence (P62937 whole entry) above
Procedure, shortened: as §1

KRAS WT = KRAS WT (Homo sapiens (Human), UniProt P01116+P62937); assay: Ras-Raf (BRAF RBD) disruption / FRET / MOA assay, KRAS WT; conditions: read-out: IC50* KRAS WT FRET data
Sequence of KRAS WT (P01116-2 other isoform, or with tags, fused parts or gaps): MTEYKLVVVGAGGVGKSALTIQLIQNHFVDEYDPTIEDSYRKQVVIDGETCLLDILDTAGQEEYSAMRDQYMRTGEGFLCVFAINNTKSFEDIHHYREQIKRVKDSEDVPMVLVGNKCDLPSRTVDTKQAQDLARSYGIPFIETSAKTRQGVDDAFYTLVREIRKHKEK
Sequence of KRAS WT (P62937 whole entry): as the sequence (P62937 whole entry) above
Procedure, shortened: as §1

KRAS G12S = KRAS G12S (Homo sapiens (Human), UniProt P01116+P62937, G12S); assay: Ras-Raf (BRAF RBD) disruption / FRET / MOA assay, KRAS G12S; conditions: Ras-Raf disruption/FRET/MOA assay; class symbols; read-out: KRAS G12S FRET data IC50
Sequence of KRAS G12S (P01116-2 other isoform, or with tags, fused parts or gaps G12S): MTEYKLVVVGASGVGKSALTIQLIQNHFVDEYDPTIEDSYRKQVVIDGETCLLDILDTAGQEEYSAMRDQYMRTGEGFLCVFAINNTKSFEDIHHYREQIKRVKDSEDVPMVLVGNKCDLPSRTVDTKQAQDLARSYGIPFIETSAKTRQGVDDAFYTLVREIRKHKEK
Sequence of KRAS G12S (P62937 whole entry): as the sequence (P62937 whole entry) above
Procedure, shortened: as §1

KRAS G12D = KRAS G12D (Homo sapiens (Human), UniProt P01116+P62937, G12D); assay: Ras-Raf (BRAF RBD) disruption / FRET / MOA assay, KRAS G12D; conditions: Ras-Raf disruption/FRET/MOA assay; class symbols; read-out: KRAS G12D FRET data IC50
Sequence of KRAS G12D (P01116-2 other isoform, or with tags, fused parts or gaps G12D): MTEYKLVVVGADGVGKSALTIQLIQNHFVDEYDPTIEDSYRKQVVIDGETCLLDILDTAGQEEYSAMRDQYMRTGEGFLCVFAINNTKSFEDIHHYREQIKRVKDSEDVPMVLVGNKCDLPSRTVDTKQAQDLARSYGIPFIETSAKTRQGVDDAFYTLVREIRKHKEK
Sequence of KRAS G12D (P62937 whole entry): as the sequence (P62937 whole entry) above
Procedure, shortened: as §1

NRAS Q61K = NRAS Q61K (Homo sapiens (Human), UniProt P01111+P62937, Q61K); assay: Ras-Raf (BRAF RBD) disruption / FRET / MOA assay, NRAS Q61K; conditions: NRAS Q61K; Ras-Raf disruption/FRET/MOA assay; read-out: IC50* NRAS Q61K FRET data
Sequence of NRAS Q61K (P01111 whole entry Q61K): as the sequence (P01111 whole entry G12C) above, with C12G, Q61K counted along it
Sequence of NRAS Q61K (P62937 whole entry): as the sequence (P62937 whole entry) above
Procedure, shortened: (§2)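 TR-FRET disruption of nucleotide-loaded Ras binding to BRAF RBD via compound-driven ternary complex with cyclophilin A. Compound as 10-point 3-fold series from 30 μM final, 3 h at 25° C, then anti-His Eu-W1024 (10 nM) and anti-GST allophycocyanin (50 nM) for 1.5 h. IC50 from decreased FRET ratio versus DMSO.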

KRAS Q61H = KRAS Q61H (Homo sapiens (Human), UniProt P01116+P62937, Q61H); assay: Ras-Raf (BRAF RBD) disruption / FRET / MOA assay, KRAS Q61H; conditions: Ras-Raf disruption/FRET/MOA assay; class symbols; read-out: KRAS Q61H FRET data IC50
Sequence of KRAS Q61H (P01116-2 other isoform, or with tags, fused parts or gaps Q61H): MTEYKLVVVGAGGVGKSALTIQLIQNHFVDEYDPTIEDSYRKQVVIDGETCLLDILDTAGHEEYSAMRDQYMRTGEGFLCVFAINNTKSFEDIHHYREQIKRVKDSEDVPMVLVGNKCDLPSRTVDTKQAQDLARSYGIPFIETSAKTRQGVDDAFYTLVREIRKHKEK
Sequence of KRAS Q61H (P62937 whole entry): as the sequence (P62937 whole entry) above
Procedure, shortened: as §2

NRAS Q61R = NRAS Q61R (Homo sapiens (Human), UniProt P01111+P62937, Q61R); assay: Ras-Raf (BRAF RBD) disruption / FRET / MOA assay, NRAS Q61R; conditions: NRAS Q61R; Ras-Raf disruption/FRET/MOA assay; read-out: IC50* NRAS Q61R FRET data
Sequence of NRAS Q61R (P01111 whole entry Q61R): as the sequence (P01111 whole entry G12C) above, with C12G, Q61R counted along it
Sequence of NRAS Q61R (P62937 whole entry): as the sequence (P62937 whole entry) above
Procedure, shortened: as §2

Sequence of K-Ras G12C (P01116-2 other isoform, or with tags, fused parts or gaps G12C): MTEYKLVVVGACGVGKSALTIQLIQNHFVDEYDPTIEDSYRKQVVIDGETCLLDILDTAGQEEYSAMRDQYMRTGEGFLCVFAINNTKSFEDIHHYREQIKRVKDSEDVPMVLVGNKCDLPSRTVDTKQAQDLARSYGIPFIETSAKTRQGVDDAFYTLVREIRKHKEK
Sequence of K-Ras G12C (P62937 whole entry): as the sequence (P62937 whole entry) above

| SMILES | IC50 (K-Ras G12C) [nM] | IC50 (NRAS G12C) [nM] | IC50 (KRAS G13D) [nM] | IC50 (K-Ras G13C) [nM] | IC50 (KRAS WT) [nM] | IC50 (KRAS G12S) [nM] | IC50 (KRAS G12D) [nM] | IC50 (NRAS Q61K) [nM] | IC50 (KRAS Q61H) [nM] | IC50 (NRAS Q61R) [nM] |
| --- | --- | --- | --- | --- | --- | --- | --- | --- | --- | --- |
| CCn1c(-c2cccnc2[C@H](C)OC)c2c3cc(ccc31)-c1csc(n1)C[C@H](NC(=O)[C@H](C(C)C)N(C)C(=O)N1CCN(C(=O)/C=C/CN(C)C)C[C@@H]1C)C(=O)N1CCC[C@H](N1)C(=O)OCC(C)(C)C2 (atropisomer, axis not shown) [Example A709] | 10 to 100 | 10 to 100 | 100 to 1000 | 100 to 1000 | 100 to 1000 | 100 to 1000 | 100 to 1000 | 10 to 100 | 10 to 100 | 100 to 1000 |
| CCn1c(-c2cccnc2[C@H](C)OC)c2c3cc(ccc31)-c1csc(n1)C[C@H](NC(=O)[C@H](C(C)C)N(C)C(=O)N1CC(N(C)C(=O)/C=C/CN(C)C)C1)C(=O)N1CCC[C@H](N1)C(=O)OCC(C)(C)C2 (atropisomer, axis not shown) [Example A710] | 10 to 100 | 10 to 100 | 100 to 1000 | 100 to 1000 | 100 to 1000 | 100 to 1000 | 100 to 1000 | 10 to 100 | 10 to 100 | 100 to 1000 |
| C=C(OC)C(=O)N1CC(N(C)C(=O)N(C)[C@H](C(=O)N[C@H]2Cc3nc(cs3)-c3ccc4c(c3)c(c(-c3cccnc3[C@H](C)OC)n4CC)CC(C)(C)COC(=O)[C@@H]3CCCN(N3)C2=O)C(C)C)C1 (atropisomer, axis not shown) [Example A713] | 100 to 1000 | 100 to 1000 | 1000 to 10000 | 1000 to 10000 | 100 to 1000 | 100 to 1000 | 1000 to 10000 | 100 to 1000 | 100 to 1000 | 100 to 1000 |
| C=CC(=O)N1CC[C@H](C(=O)N(C)[C@H](C(=O)N[C@H]2CN3CCC=C(C3)c3ccc4c(c3)c(c(-c3cccnc3[C@H](C)OC)n4CC)CC(C)(C)COC(=O)[C@@H]3CCCN(N3)C2=O)C(C)C)C1 (atropisomer, axis not shown) [Example A716, (3S)-1-acryloyl-N-((2S)-1-(((6^3S,4S)-1^1-ethyl-1^2-(2-((S)-1-methoxyethyl)pyridin-3-yl)-10,10-dimethyl-5,7-dioxo-2^1,2^2,2^3,2^6,6^1,6^2,6^3,6^4,6^5,6^6-decahydro-1^1H-8-oxa-1(5,3)-indola-6(1,3)-pyridazina-2(5,1)-pyridinacycloundecaphane-4-yl)amino)-3-methyl-1-oxobutan-2-yl)-N-methylpyrrolidine-3-carboxamide] | 100 to 1000 | 100 to 1000 | > 10000 | 1000 to 10000 | 1000 to 10000 | 1000 to 10000 | > 10000 | > 10000 | 1000 to 10000 | > 10000 |
| CCn1c(-c2cccnc2[C@H](C)OC)c2c3cc(ccc31)-c1nc(nn1C)C[C@H](NC(=O)[C@@H](COC1CN(C(=O)C#CC(C)(C)N(C)C)C1)C(C)C)C(=O)N1CCC[C@H](N1)C(=O)OCC(C)(C)C2 (atropisomer, axis not shown) [Example A720, (2R)-2-(((1-(4-(dimethylamino)-4-methylpent-2-ynoyl)azetidin-3-yl)oxy)methyl)-N-((6^3S,4S,Z)-1^1-ethyl-1^2-(2-((S)-1-methoxyethyl)pyridin-3-yl)-2^1,10,10-trimethyl-5,7-dioxo-6^1,6^2,6^3,6^4,6^5,6^6-hexahydro-1^1H,2^1H-8-oxa-1(5,3)-indola-6(1,3)-pyridazina-2(5,3)-triazolacycloundecaphane-4-yl)-3-methylbutanamide] | 10 to 100 | 10 to 100 | 1000 to 10000 | 1000 to 10000 | 1000 to 10000 | 1000 to 10000 | > 10000 | 1000 to 10000 | 1000 to 10000 | 1000 to 10000 |
| C=CC(=O)N1CCC(F)(C(=O)N(C)[C@H](C(=O)N[C@H]2C[C@H]3CN(CCO3)c3ccc4c(c3)c(c(-c3cccnc3[C@H](C)OC)n4CC)CC(C)(C)COC(=O)[C@@H]3CCCN(N3)C2=O)C(C)C)CC1 (atropisomer, axis not shown) [Example A722, 1-acryloyl-N-((2S)-1-(((6^3S,4S)-1^1-ethyl-1^2-(2-((S)-1-methoxyethyl)pyridin-3-yl)-10,10-dimethyl-5,7-dioxo-6^1,6^2,6^3,6^4,6^5,6^6-hexahydro-1^1H-8-oxa-2(4,2)-morpholina-1(5,3)-indola-6(1,3)-pyridazinacycloundecaphane-4-yl)amino)-3-methyl-1-oxobutan-2-yl)-4-fluoro-N-methylpiperidine-4-carboxamide] | 10 to 100 | 10 to 100 | 1000 to 10000 | 100 to 1000 | 100 to 1000 | 1000 to 10000 | 1000 to 10000 | 1000 to 10000 | 1000 to 10000 | 1000 to 10000 |
| C=CC(=O)N1CC(OC[C@H](C(=O)N[C@H]2C[C@H]3CN(CCO3)c3ccc4c(c3)c(c(-c3cccnc3[C@H](C)OC)n4CC(F)(F)F)CC(C)(C)COC(=O)[C@@H]3CCCN(N3)C2=O)C(C)C)C1 (atropisomer, axis not shown) [Example A723] | 100 to 1000 | 100 to 1000 | > 10000 | 1000 to 10000 | 1000 to 10000 | 1000 to 10000 | > 10000 | > 10000 | 1000 to 10000 | > 10000 |
| CCn1c(-c2cccnc2[C@H](C)OC)c2c3cc(ccc31)-c1csc(n1)C[C@H](NC(=O)[C@H](C(C)C)N(C)C(=O)N(C)C1CN(C(=O)/C=C/[C@H]3CCCN3C)C1)C(=O)N1CCC[C@H](N1)C(=O)OCC(C)(C)C2 (atropisomer, axis not shown) [Example A729] | 100 to 1000 | 100 to 1000 | 100 to 1000 | 100 to 1000 | 100 to 1000 | 100 to 1000 | 1000 to 10000 | 100 to 1000 | 100 to 1000 | 1000 to 10000 |
| CCn1c(-c2cccnc2[C@H](C)OC)c2c3cc(ccc31)-c1csc(n1)C[C@H](NC(=O)[C@H](C(C)C)N(C)C(=O)N(C)C1CN(C(=O)/C=C/[C@@H]3CCCN3C)C1)C(=O)N1CCC[C@H](N1)C(=O)OCC(C)(C)C2 (atropisomer, axis not shown) [Example A730] | 10 to 100 | 10 to 100 | 100 to 1000 | 100 to 1000 | 100 to 1000 | 100 to 1000 | 1000 to 10000 | 100 to 1000 | 100 to 1000 | 1000 to 10000 |
| CC#CC(=O)N1CC(N(C)C(=O)N(C)[C@H](C(=O)N[C@H]2Cc3nc(cs3)-c3ccc4c(c3)c(c(-c3cccnc3[C@H](C)OC)n4CC)CC(C)(C)COC(=O)[C@@H]3CCCN(N3)C2=O)C(C)C)C1 (atropisomer, axis not shown) [Example A731] | 100 to 1000 | 100 to 1000 | 1000 to 10000 | 100 to 1000 | 100 to 1000 | 100 to 1000 | 1000 to 10000 | 100 to 1000 | 100 to 1000 | 1000 to 10000 |
